± gives the expanded uncertainty stated by the source.
Test: molar heat capacity at constant pressure
Details: 101.33 kPa, Crystal

What does the source list for `OC[C@@H](O)[C@H](O)[C@@H](O)CO` [xylitol]?
molar heat capacity at constant pressure (190.15 K, Small sample (50 mg) DSC): 131.3 ± 8.1 J/K/mol; molar heat capacity at constant pressure (191.15 K, Small sample (50 mg) DSC): 132.22 ± 8.2 J/K/mol; molar heat capacity at constant pressure (191.51 K, relaxation calorimetry): 137.32 ± 5.6 J/K/mol; molar heat capacity at constant pressure (192.15 K, Small sample (50 mg) DSC): 132.97 ± 8.2 J/K/mol; molar heat capacity at constant pressure (193.15 K, Small sample (50 mg) DSC): 133.63 ± 8.2 J/K/mol; molar heat capacity at constant pressure (194.15 K, Small sample (50 mg) DSC): 134.85 ± 8.3 J/K/mol; molar heat capacity at constant pressure (195.15 K, Small sample (50 mg) DSC): 136.05 ± 8.4 J/K/mol; molar heat capacity at constant pressure (196.15 K, Small sample (50 mg) DSC): 137.13 ± 8.4 J/K/mol; molar heat capacity at constant pressure (197.15 K, Small sample (50 mg) DSC): 137.99 ± 8.5 J/K/mol; molar heat capacity at constant pressure (198.15 K, Small sample (50 mg) DSC): 138.87 ± 8.6 J/K/mol; molar heat capacity at constant pressure (199.15 K, Small sample (50 mg) DSC): 139.73 ± 8.6 J/K/mol; molar heat capacity at constant pressure (200 K, relaxation calorimetry): 142.38 ± 8.7 J/K/mol; molar heat capacity at constant pressure (200.15 K, Small sample (50 mg) DSC): 140.65 ± 8.7 J/K/mol; molar heat capacity at constant pressure (201.15 K, Small sample (50 mg) DSC): 141.4 ± 8.7 J/K/mol; molar heat capacity at constant pressure (201.63 K, relaxation calorimetry): 143.25 ± 5.8 J/K/mol; molar heat capacity at constant pressure (202.15 K, Small sample (50 mg) DSC): 142.18 ± 8.8 J/K/mol; molar heat capacity at constant pressure (203.15 K, Small sample (50 mg) DSC): 143.08 ± 8.8 J/K/mol; molar heat capacity at constant pressure (204.15 K, Small sample (50 mg) DSC): 143.76 ± 8.9 J/K/mol; molar heat capacity at constant pressure (205.15 K, Small sample (50 mg) DSC): 144.29 ± 8.9 J/K/mol; molar heat capacity at constant pressure (206.15 K, Small sample (50 mg) DSC): 145.08 ± 8.9 J/K/mol; molar heat capacity at constant pressure (207.15 K, Small sample (50 mg) DSC): 145.87 ± 9 J/K/mol; molar heat capacity at constant pressure (208.15 K, Small sample (50 mg) DSC): 146.4 ± 9 J/K/mol; molar heat capacity at constant pressure (209.15 K, Small sample (50 mg) DSC): 147.11 ± 9.1 J/K/mol; molar heat capacity at constant pressure (210 K, relaxation calorimetry): 148.6 ± 9.1 J/K/mol; molar heat capacity at constant pressure (210.15 K, Small sample (50 mg) DSC): 147.83 ± 9.1 J/K/mol; molar heat capacity at constant pressure (211.15 K, Small sample (50 mg) DSC): 148.54 ± 9.2 J/K/mol; molar heat capacity at constant pressure (211.72 K, relaxation calorimetry): 149.26 ± 6.1 J/K/mol; molar heat capacity at constant pressure (212.15 K, Small sample (50 mg) DSC): 149.22 ± 9.2 J/K/mol; molar heat capacity at constant pressure (213.15 K, Small sample (50 mg) DSC): 149.76 ± 9.2 J/K/mol; molar heat capacity at constant pressure (214.15 K, Small sample (50 mg) DSC): 150.56 ± 9.3 J/K/mol; molar heat capacity at constant pressure (215.15 K, Small sample (50 mg) DSC): 151.28 ± 9.3 J/K/mol; molar heat capacity at constant pressure (216.15 K, Small sample (50 mg) DSC): 152.02 ± 9.4 J/K/mol; molar heat capacity at constant pressure (217.15 K, Small sample (50 mg) DSC): 152.63 ± 9.4 J/K/mol; molar heat capacity at constant pressure (218.15 K, Small sample (50 mg) DSC): 153.29 ± 9.4 J/K/mol; molar heat capacity at constant pressure (219.15 K, Small sample (50 mg) DSC): 154.13 ± 9.5 J/K/mol; molar heat capacity at constant pressure (220 K, relaxation calorimetry): 154.86 ± 9.5 J/K/mol; molar heat capacity at constant pressure (220.15 K, Small sample (50 mg) DSC): 154.86 ± 9.6 J/K/mol; molar heat capacity at constant pressure (221.15 K, Small sample (50 mg) DSC): 155.65 ± 9.6 J/K/mol; molar heat capacity at constant pressure (221.81 K, relaxation calorimetry): 156.12 ± 6.3 J/K/mol; molar heat capacity at constant pressure (222.15 K, Small sample (50 mg) DSC): 156.3 ± 9.6 J/K/mol; molar heat capacity at constant pressure (223.15 K, Small sample (50 mg) DSC): 157.01 ± 9.7 J/K/mol; molar heat capacity at constant pressure (224.15 K, Small sample (50 mg) DSC): 157.66 ± 9.7 J/K/mol; molar heat capacity at constant pressure (225.15 K, Small sample (50 mg) DSC): 158.24 ± 9.8 J/K/mol; molar heat capacity at constant pressure (226.15 K, Small sample (50 mg) DSC): 158.84 ± 9.8 J/K/mol; molar heat capacity at constant pressure (227.15 K, Small sample (50 mg) DSC): 159.41 ± 9.8 J/K/mol; molar heat capacity at constant pressure (228.15 K, Small sample (50 mg) DSC): 160.16 ± 9.9 J/K/mol; molar heat capacity at constant pressure (229.15 K, Small sample (50 mg) DSC): 160.62 ± 9.9 J/K/mol; molar heat capacity at constant pressure (230 K, relaxation calorimetry): 161.19 ± 9.9 J/K/mol; molar heat capacity at constant pressure (230.15 K, Small sample (50 mg) DSC): 161.2 ± 9.9 J/K/mol; molar heat capacity at constant pressure (231.15 K, Small sample (50 mg) DSC): 162.12 ± 10 J/K/mol; molar heat capacity at constant pressure (231.89 K, relaxation calorimetry): 162.24 ± 6.6 J/K/mol; molar heat capacity at constant pressure (232.15 K, Small sample (50 mg) DSC): 162.73 ± 10 J/K/mol; molar heat capacity at constant pressure (233.15 K, Small sample (50 mg) DSC): 163.22 ± 10 J/K/mol; molar heat capacity at constant pressure (234.15 K, Small sample (50 mg) DSC): 164.01 ± 10 J/K/mol; molar heat capacity at constant pressure (235.15 K, Small sample (50 mg) DSC): 164.81 ± 10 J/K/mol; molar heat capacity at constant pressure (236.15 K, Small sample (50 mg) DSC): 165.55 ± 10 J/K/mol; molar heat capacity at constant pressure (237.15 K, Small sample (50 mg) DSC): 166.14 ± 10 J/K/mol; molar heat capacity at constant pressure (238.15 K, Small sample (50 mg) DSC): 166.88 ± 10 J/K/mol; molar heat capacity at constant pressure (239.15 K, Small sample (50 mg) DSC): 167.65 ± 10 J/K/mol; molar heat capacity at constant pressure (240 K, relaxation calorimetry): 167.6 ± 10 J/K/mol; molar heat capacity at constant pressure (240.15 K, Small sample (50 mg) DSC): 168.23 ± 10 J/K/mol; molar heat capacity at constant pressure (241.15 K, Small sample (50 mg) DSC): 168.92 ± 10 J/K/mol; molar heat capacity at constant pressure (241.89 K, relaxation calorimetry): 168.66 ± 6.8 J/K/mol; molar heat capacity at constant pressure (242.15 K, Small sample (50 mg) DSC): 169.52 ± 10 J/K/mol; molar heat capacity at constant pressure (243.15 K, Small sample (50 mg) DSC): 170.22 ± 10 J/K/mol; molar heat capacity at constant pressure (244.15 K, Small sample (50 mg) DSC): 170.79 ± 11 J/K/mol; molar heat capacity at constant pressure (245.15 K, Small sample (50 mg) DSC): 171.35 ± 11 J/K/mol; molar heat capacity at constant pressure (246.15 K, Small sample (50 mg) DSC): 172.07 ± 11 J/K/mol; molar heat capacity at constant pressure (247.15 K, Small sample (50 mg) DSC): 172.62 ± 11 J/K/mol; molar heat capacity at constant pressure (248.15 K, Small sample (50 mg) DSC): 173.32 ± 11 J/K/mol; molar heat capacity at constant pressure (249.15 K, Small sample (50 mg) DSC): 173.97 ± 11 J/K/mol; molar heat capacity at constant pressure (250 K, relaxation calorimetry): 174.1 ± 11 J/K/mol; molar heat capacity at constant pressure (250.15 K, Small sample (50 mg) DSC): 174.75 ± 11 J/K/mol; molar heat capacity at constant pressure (251.15 K, Small sample (50 mg) DSC): 175.38 ± 11 J/K/mol; molar heat capacity at constant pressure (252.05 K, relaxation calorimetry): 175.66 ± 7.1 J/K/mol; molar heat capacity at constant pressure (252.15 K, Small sample (50 mg) DSC): 176.09 ± 11 J/K/mol; molar heat capacity at constant pressure (253.15 K, Small sample (50 mg) DSC): 176.77 ± 11 J/K/mol; molar heat capacity at constant pressure (254.15 K, Small sample (50 mg) DSC): 177.72 ± 11 J/K/mol; molar heat capacity at constant pressure (255.15 K, Small sample (50 mg) DSC): 178.41 ± 11 J/K/mol; molar heat capacity at constant pressure (256.15 K, Small sample (50 mg) DSC): 179.25 ± 11 J/K/mol; molar heat capacity at constant pressure (257.15 K, Small sample (50 mg) DSC): 180.21 ± 11 J/K/mol; molar heat capacity at constant pressure (258.15 K, Small sample (50 mg) DSC): 180.68 ± 11 J/K/mol; molar heat capacity at constant pressure (259.15 K, Small sample (50 mg) DSC): 181.27 ± 11 J/K/mol; molar heat capacity at constant pressure (260 K, relaxation calorimetry): 180.7 ± 11 J/K/mol; molar heat capacity at constant pressure (260.15 K, Small sample (50 mg) DSC): 182.15 ± 11 J/K/mol
